The structures appear in SMILES notation.

In the assay the target is Serine/threonine-protein kinase B-raf [V600E] (Homo sapiens, UniProt P15056, V600E). Nature of the assay: BRAF V600E Enzyme Assay. As to the method: A competitive displacement assay was configured for B-Raf that monitors the amount of a fluorescently-tagged “tracer” bound to B-Raf via TR-FRET from an anti-tag Eu-labeled antibody also bound to B-Raf. For full-length FLAG-tagged B-Raf(V600E), the assay mixtures consisted of 25 mM K+HEPES, pH 7.4, 10 mM MgCl2, 0.01% Triton X-100, 1 mM DTT, 2% DMSO (from compound), 50 nM Tracer 1710 (ThermoFisher, PR9176A), 0.5 nM Eu anti-FLAG (M2)-cryptate Ab (Cisbio, 61FG2KLB) and 5 nM full-length, N-terminally FLAG-tagged B-Raf(V600E) (Origene Technologies, TP700031. Compounds were typically diluted in DMSO across an 11-point dosing range created using a 3-fold serial dilution protocol at a top dose of 10 μM. The assay was run in 384-well, polystyrene, low-volume, non-treated, white microtiter plates (Costar 4512) in a final volume of 12 μL. Low control wells included 1 μM of a potent B-Raf inhibitor as a control. The assays were incubated at ambient temperature (typically 22° C.) for 60 min and then read on a PerkinElmer EnVision microplate reader using standard TRF settings (λEx=320 nm, λEm=615 & 665 nm).
Sequence of Serine/threonine-protein kinase B-raf [V600E] (P15056 2-766 V600E limits assumed): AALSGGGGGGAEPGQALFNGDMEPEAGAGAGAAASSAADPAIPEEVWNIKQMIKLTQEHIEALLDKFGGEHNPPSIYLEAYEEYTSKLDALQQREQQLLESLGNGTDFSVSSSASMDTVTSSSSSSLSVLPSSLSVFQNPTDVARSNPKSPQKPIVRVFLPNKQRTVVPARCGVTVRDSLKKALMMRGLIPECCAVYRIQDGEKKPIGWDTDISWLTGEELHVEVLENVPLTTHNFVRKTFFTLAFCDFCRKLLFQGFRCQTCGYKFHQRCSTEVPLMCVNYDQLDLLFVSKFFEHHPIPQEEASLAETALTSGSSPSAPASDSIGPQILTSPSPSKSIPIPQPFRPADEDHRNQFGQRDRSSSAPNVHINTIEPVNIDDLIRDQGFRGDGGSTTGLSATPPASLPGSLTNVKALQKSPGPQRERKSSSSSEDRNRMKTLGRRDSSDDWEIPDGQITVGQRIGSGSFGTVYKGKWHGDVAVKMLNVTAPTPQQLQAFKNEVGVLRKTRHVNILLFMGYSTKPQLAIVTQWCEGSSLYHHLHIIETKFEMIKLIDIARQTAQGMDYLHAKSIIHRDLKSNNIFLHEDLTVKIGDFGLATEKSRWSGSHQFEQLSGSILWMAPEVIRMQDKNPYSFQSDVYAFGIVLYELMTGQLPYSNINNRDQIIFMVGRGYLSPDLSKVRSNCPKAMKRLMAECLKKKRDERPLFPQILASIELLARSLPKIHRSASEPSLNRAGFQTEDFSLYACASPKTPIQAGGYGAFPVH
For orientation: IC50 means the concentration that inhibits the measured activity by half. Higher therefore signals lower potency. `Cn1cnc2ccc(Nc3c(F)ccc(NS(=O)(=O)N4CC(OC(F)F)C4)c3Cl)c(Cl)c2c1=O` [US12303509, Example 143] yielded a concentration for half-maximal inhibition (IC50) of 8 nM.

In turn, `Cc1c(Nc2c(F)ccc(NS(=O)(=O)N3CC(C)(F)C3)c2Cl)ccc2ncn(C)c(=O)c12` [US12303509, Example 155] yielded an IC50 of 7 nM. The IC50 values of the last two compounds are within 1.5-fold of each other.

On to `Cc1c(Nc2c(F)ccc(NS(=O)(=O)N3CC4(CCC4)C3)c2Cl)ccc2ncn(C)c(=O)c12` [US12303509, Example 157], for which the IC50 turned out to be 29 nM.

(Values after BindingDB's records for patent US12303509 (Pfizer, 2025).)
